Reference: patent US7910622B2, “Modulation of bacterial quorum sensing with synthetic ligands” (Wisconsin Alumni Research Foundation, priority 2007, dated 2011)
“And” between values parts separate entries of the source, which are not always exact repeats. Equal entries are not always repeated. Where two headings read alike, the source gives them in different places. Marks after values point to notes of the source that are not given here.

What was measured:
Test in all cases: cell-based
LuxR [1] = target: T1, LuxR (Aliivibrio fischeri, UniProt P35327); parameters: species or system Vibrio fischeri; settings: for V. fischeri-LuxR Activation [%]: 200 μM ligand
T1 construct: a Δ-luxI derivative of V. fischeri ES114, in which the native lux operon behaves as the bioluminescent reporter; endogenous in cells; host or cells: V. fischeri ES114 (Δ-luxI)
T1 sequence (P35327 whole entry): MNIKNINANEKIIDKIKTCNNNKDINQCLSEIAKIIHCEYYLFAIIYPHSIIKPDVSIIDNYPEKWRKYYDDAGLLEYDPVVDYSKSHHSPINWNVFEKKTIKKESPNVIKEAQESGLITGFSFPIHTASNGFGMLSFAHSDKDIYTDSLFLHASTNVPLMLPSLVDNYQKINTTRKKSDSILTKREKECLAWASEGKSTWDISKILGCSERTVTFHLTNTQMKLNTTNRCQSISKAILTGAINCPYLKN
Description: (§1) Luminescence assays. For agonism assays, an appropriate amount of AHL stock solution was added into a 96-well plate. An overnight culture of E. coli or V. fischeri was diluted 1:10 with appropriate media (LB plus 10 μg/mL tetracycline for E. coli; LBS for V. fischeri). A 200-μL portion of the diluted culture was added to each well of the plate. Plates were grown for 4-8 h with shaking (200 rpm; 30° C. for E. coli and RT for V. fischeri). Luminescence was measured using a multilabel plate reader and normalized to cell density. […] All assays were performed in triplicate. Graphpad Prism software was used to calculate IC50 and EC50 values.
(§2) Vibrio fischeri assay procedures. […] An overnight culture of V. fischeri ES114 (WT, Δ-luxI or Δ-luxR) was diluted 1:10 with LBS medium. A-200 μL portion of the diluted culture was added to each well of the plate. Plates were grown at RT with shaking (200 rpm) until the OD600=0.35-0.4 (4-6 h). Luminescence then was measured and normalized to cell density per well. […] All assays were performed in triplicate. IC50 and EC50 values were calculated using GraphPad Prism software using a sigmoidal curve fit.
(§3) V. fischeri reporter gene assay protocols. […] An overnight culture of V. fischeri ES114 (D-luxI) was diluted 1:10 with LBS medium. A 200-μL portion of the diluted culture was added to each well of the multititer plate. Plates were grown at RT with shaking (200 rpm) until the OD600=0.35-0.4 (4-6 h). Luminescence then was measured and normalized to cell density per well.
(§4) Dose response reporter gene assays. […] IC50 and EC50 values were calculated using GraphPad Prism software (v. 4.0) using a sigmoidal curve fit.
as §3, with “(Δ-luxI)” for “(D-luxI)”, “A200 μL” for “A 200-μL”, “incubated” for “grown”, “RT” for “RT with shaking (200 rpm)”
as §4

LasR [2] = target: T2, LasR (Pseudomonas aeruginosa, UniProt P25084); assay type: cell-based; settings: for E. coli-LasR Inhibition [%]: 5 μM synthetic ligand against 7.5 nM OdDHL
T2 construct: expressed in transfected cells; host or cells: E. coli DH5α (pJN105L pSC11), arabinose-induced
T2 sequence (P25084 whole entry): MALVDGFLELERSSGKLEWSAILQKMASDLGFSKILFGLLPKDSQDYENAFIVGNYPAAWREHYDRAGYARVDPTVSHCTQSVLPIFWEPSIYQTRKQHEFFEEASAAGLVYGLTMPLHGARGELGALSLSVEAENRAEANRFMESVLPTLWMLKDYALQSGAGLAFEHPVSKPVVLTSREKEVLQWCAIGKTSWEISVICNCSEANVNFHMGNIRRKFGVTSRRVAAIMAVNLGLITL
Description: (§5) E. coli LasR reporter gene assay protocols. […] An overnight culture of E. coli DH5a (pJN105L pSC11) grown at 37° C. was subculture by diluting 1/10 in fresh LB medium containing 100 μg/mL ampicillin and 15 μg/mL gentamicin and shaking at 37° C. until OD600=0.3. Arabinose (4 mg/mL) was then added to induce the LasR promoter and a 200 μL-portion of this culture was added to each well of the multititer plate containing AHLs. Plates were grown at 37° C. for 2 hours in a rotary shaking incubator (200 rpm; OD600=0.45). The cultures were then assayed for activity following the identical β-galactosidase assay protocols used in the A. tumefaciens reporter gene assays.
as §4
(§6) E. coli LasR reporter gene assay protocols. […] An overnight culture of E. coli DH5α (pJN105L pSC11) was diluted 1:10 with fresh LB medium containing 100 μg/mL ampicillin and 15 μg/mL gentamicin. This sub-culture was incubated at 37° C. until OD600=0.3 (4-6 h). Arabinose (4 mg/mL) was then added to induce the LasR promoter, and a 200 μL portion of this culture was added to each well of the multititer plate containing AHLs. Plates were incubated at 37° C. until OD600=0.45 (4-6 h). The cultures were then assayed for LasR activity following the identical β-galactosidase assay protocols used in the A. tumefaciens reporter gene assays (see above).
as §4

LasR [3] = target: T2, LasR; settings: for E. coli-LasR Activation [%]: 5 μM ligand
Description: as §5, §4, §6, §4

LuxR [4] = target: T1, LuxR; assay type: cell-based, Vibrio fischeri; settings: for V. fischeri-LuxR Inhibition [%]: 5 μM synthetic ligand against 5 μM OHHL
Description: as §1, §2, §3, §4
as §3, with “(Δ-luxI)” for “(D-luxI)”, “A200 μL” for “A 200-μL”, “incubated” for “grown”, “RT” for “RT with shaking (200 rpm)”
as §4

TraR = target: T3, TraR (Agrobacterium tumefaciens, UniProt P33905); settings: for A. tumefaciens-TraR Activation [%]: 10 μM ligand; for A. tumefaciens-TraR Inhibition [%]: 10 μM synthetic ligand against 100 nM OOHL
T3 construct: These strains lack their AHL synthase (I) genes, but retain their native R genes; endogenous in cells; host or cells: A. tumefaciens WCF47 (Δ-traI) with PtraI-lacZ plasmid pCF372
T3 sequence (P33905 whole entry): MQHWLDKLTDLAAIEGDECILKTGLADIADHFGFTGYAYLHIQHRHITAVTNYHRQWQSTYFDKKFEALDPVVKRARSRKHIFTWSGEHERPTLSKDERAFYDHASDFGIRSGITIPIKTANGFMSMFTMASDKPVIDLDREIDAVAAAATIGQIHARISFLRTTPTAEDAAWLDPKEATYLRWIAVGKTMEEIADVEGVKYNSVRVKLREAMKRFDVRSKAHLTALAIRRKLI
Description: A. tumefaciens reporter gene assay protocols. […] An overnight culture of A. tumefaciens WCF47 (pCF372) was diluted to an OD600 of 0.1 in fresh AB minimal medium containing 400 μg/mL octopine and 50 μg/mL streptomycin. A 200 μL-portion of the diluted culture was added to each well of the multititer plate containing AHLs. Plates were grown at 28° C. for 18-20 h in a rotary shaking incubator (200 rpm). The cultures were then assayed for β-galactosidase activity following the Miller assay method. Briefly, 200 μL aliquots of bacteria from each of the wells were added to wells of a polystyrene 96-well plate and the OD600 of each well was recorded. Next, 50 μL aliquots from each well were transferred to a solvent resistant 96-well plate containing 200 μL Z buffer, 8 μL CHCl3 and 4 μL 0.1% aq. sodium dodecylsulfate (SDS). This suspension was mixed via repetitive pipetting, after which the CHCl3 was allowed to settle. A 100-μL aliquot from each well was transferred to a fresh polystyrene 96-well plate, and 20 μL of substrate, o-nitrophenyl-β-D-galactopyranoside (ONPG, 4 μg/mL in phosphate buffer), was added at time zero. After the development of appropriate yellow color (ca. 15-35 min), the reaction was terminated by the addition of 50 μL of 1 M Na2CO3. Absorbance at 420 nm and 550 nm was measured for each well using a plate reader, and Miller units were calculated according to standard methods.
as §4
A. tumefaciens reporter gene assay protocols. […] An overnight culture of A. tumefaciens WCF47 (pCF372) was diluted 1:10 with fresh AB minimal medium containing 400 μg/mL octopine and 50 μg/mL streptomycin. A 200 μL portion of the diluted culture was added to each well of the multititer plate containing AHLs. Plates were incubated at 28° C. for 18-24 h. The cultures were then assayed for β-galactosidase activity following the Miller assay method. Briefly, 200 μL aliquots of bacteria from each of the wells were added to wells of a 96-well multititer plate, and the OD600 of each well was recorded. Next, 50 μL aliquots from each well were transferred to a solvent resistant 96-well multititer plate containing 200 μL Z buffer, 8 μL CHCl3 and 4 μL 0.1% aq. SDS. This suspension was mixed via repetitive pipetting, after which the CHCl3 was allowed to settle. A 100 μL aliquot from each well was transferred to a fresh 96-well multititer plate, and 20 μL of substrate, o-nitrophenyl-β-D-galactopyranoside (ONPG, 4 μg/mL in phosphate buffer), was added at time zero. After the development of appropriate yellow color (ca. 20-30 min), the reaction was terminated by the addition of 50 μL of 1 M Na2CO3. Absorbances at 420 nm and 550 nm were measured for each well using a plate reader, and Miller units were calculated according to standard methods.
as §4

[5] = V. fischeri ES114 (Δ-luxI), normalized to OHHL
[6] = E. coli DH5α (pJN105L pSC11), normalized to OdDHL
[7] = A. tumefaciens WCF47 (pCF372), normalized to OOHL
[8] = determined against 100 nM OOHL, read-out: TraR IC50

| Compound | V. fischeri-LuxR Activation [%] (LuxR [1]; [5]) | E. coli-LasR Inhibition [%] (LasR [2]; [6]) | E. coli-LasR Activation [%] (LasR [3]; [6]) | V. fischeri-LuxR Inhibition [%] (LuxR [4]; [5]) | A. tumefaciens-TraR Activation [%] (TraR; [7]) | A. tumefaciens-TraR Inhibition [%] (TraR; [7]) | also measured |
| --- | --- | --- | --- | --- | --- | --- | --- |
| 4-amino PHL [C21] | – | – | – | – | – | – | Activation (%) (LuxR [1]; V. fischeri-LuxR, Library C primary agonism screen): 3%; Inhibition (%) (LasR [2]; E. coli-LasR, Library C primary antagonism screen): 8%; Activation (%) (LasR [3]; E. coli-LasR, Library C primary agonism screen): 0%; Inhibition (%) (LuxR [4]; V. fischeri-LuxR, Library C primary antagonism screen): 12%; Activation (%) (TraR; A. tumefaciens-TraR, Library C primary agonism screen): 0%; Inhibition (%) (TraR; A. tumefaciens-TraR, Library C primary antagonism screen): 5% |
| O=C(Cc1c(F)c(F)c(F)c(F)c1F)N[C@H]1CCOC1=O [B19, pentafluoroaromatic PHL] | 2 | 19% | 2 | 40 | 0 | 2 | – |
| CC(C)(C)OC(=O)NCCCCC(=O)N[C@H]1CCOC1=O [A22] | 2 | 15% | 3 | 47 | 0 | 10 | – |
| O=C(Cc1ccccc1I)N[C@H]1CCOC1=O [B15] | 7 | 17% | 0 | 63 | 0 | 5 | – |
| O=C(Cc1ccccc1[N+](=O)[O-])N[C@H]1CCOC1=O [B18] | 4 | 17% | 0 | 23 | 0 | 1 | – |
| O=C(CCC(=O)OC(C(=O)c1ccccc1)c1ccccc1)N[C@H]1CCOC1=O (stereo partly shown) [D19] | 1 | 17% | 7 | 30 | 0 | 11 | – |
| O=C(CC1CCCC1)N[C@H]1CCOC1=O [B12] | 3 | 19% | 0 | 57 | 0 | 11 | – |
| N-(phenylbutanoyl)-L-homoserine lactone [compound 6, reference compound] | 3 | ~25% and ~20% | 3 | 70 | 2 | 93 | IC50 (TraR; [8]): 1120 nM |
| CCOC(=O)/C=C/C(=O)N[C@H]1CCOC1=O [A20] | 1 | 13% | 0 | 37 | 0 | 3 | – |
| CC(=O)c1ccc(OCC(=O)N[C@H]2CCOC2=O)cc1C [D17] | 2 | 26% | 0 | 50 | 1 | 92 | IC50 (TraR; [8]): 1400 nM |
| CCCCCCCCCC(=O)NC1CCOC1=O (stereo not shown) [A4, C10 AHL] | – | – | – | – | – | – | activation at 200 µM (LuxR [1]; read-out: V. fischeri-LuxR Activation [%], 200 μM ligand, V. fischeri ES114 (Δ-luxI), normalized to OHHL): 1%; IC50 (LasR [2]): 250 nM; LasR: concentration at which the compound elicits its maximal inhibition (value in parentheses) (LasR [2]; against 7.5 nM OdDHL, dose response curve did not reach 100% inhibition): (2.0)^f μM; inhibition at 5 µM (LasR [2]; read-out: E. coli-LasR Inhibition [%], 5 μM synthetic ligand against 7.5 nM OdDHL, E. coli DH5α (pJN105L pSC11), normalized to OdDHL): 34%; EC50 (LasR [3]): > 200000 nM; activation at 5 µM (LasR [3]; read-out: E. coli-LasR Activation [%], 5 μM ligand, E. coli DH5α (pJN105L pSC11), normalized to OdDHL): ≤ 44%; IC50 (LuxR [4]; LuxR IC50, determined against 5 μM OHHL): 900 nM and 400 nM; inhibition at 5 µM (LuxR [4]; read-out: V. fischeri-LuxR Inhibition [%], 5 μM synthetic ligand against 5 μM OHHL, V. fischeri ES114 (Δ-luxI), normalized to OHHL): 96%; IC50 (TraR): 1050 nM; activation at 10 µM (TraR; read-out: A. tumefaciens-TraR Activation [%]): 2%; inhibition at 10 µM (TraR; read-out: A. tumefaciens-TraR Inhibition [%], 10 μM synthetic ligand against 100 nM OOHL, A. tumefaciens WCF47 (pCF372), normalized to OOHL): 92% |
| 4-amino PHL [B26] | 3 | 8% | 0 | 12 | 0 | 5 | – |
| O=C(CCCc1c[nH]c2ccccc12)N[C@@H]1CCOC1=O [A29] | 2 | 13% | 0 | 29 | 0 | 9 | – |
